Data: patent publication US6894075B2, “4′-demethyl-4′-O-substituted-1-deoxypodophyllotoxin derivative and geometric isomer thereof, process for the preparation thereof and anti-cancer composition comprising the same” (priority 2000, dated 2005)

Assays:
[1] = system: A549 cell; experiment: Cytotoxicity test (SRB method) for A549 cells; format: cell-based, human; conditions: A549, SRB, 48 hours incubation, Table 2
From the text: (§1) Human lung carcinomas A549 and […] were used for determining cytotoxicity of the compounds of the present invention according to the Sulfrhodamine-B (SRB) method which was developed by NCI in 1989 in order to determine in vitro anticancer activity of drugs.
(§2) Cells to be used in the experiment were separated from a surface using 0.5% Trypsin-EDTA solution and suspended in a density of 5×10^4 cell/ml therein. The cell suspension was introduced into a 96-well plate in an amount of 180/well and incubated for 24 hours in a 5% CO2 incubator of 37° C. Samples were dissolved in dimethylsulfoxide and then diluted by water distilled in advance for three times just before the experiment. Forty-one (41) samples were prepared into 4 types of final concentrations, i.e., 0.1, 0.03, 0.01 and 0.003 mg per ml of the medium. The diluted sample solutions were added to the 96-well plate in the amount of 20 μl/well and incubated for 48 hours in a CO2 incubator of 37° C. At the time of adding the samples, Tz (Time zero) plate was taken. The medium was removed from the Tz plate and each of the plates after incubation were completed. Ten (10)% […] (TCA) was added in the amount of […], and allowed to stand for 1 hour at 4° C. to fix the cells on the bottom surface of the plate. After the cells were fixed, the plate was washed five to six times with water to completely remove the remaining TCA solution and then dried at room temperature to completely remove the moisture. To the fully dried plate was introduced a dye solution in the amount of […] in which 0.4% SRB was dissolved in 1% acetic acid solution. […] After the dyeing process, the plate was dried again at room temperature. 100 ml of 10 mM Tris solution was added thereto in order to dissolve the dye, and then O.D. (optical density) was determined by microplate reader at 520 nm.
(§3) ED50 values for cancer cells were calculated as follows. The amount of SRB protein was analyzed at the time when incubation started by the addition of the sample. This amount was named time zero (Tz). The O.D. value obtained from a group which was not treated by the sample was named Control group (C) and the O.D. value obtained from a group which was treated by the sample was named Test group (T).
(§4) The degree of cytotoxicity of the compounds was calculated from Tz, C and T values according to the following equation.
(§5) That is, in the case of Tz≧T, the degree was calculated by
(§6) (T−Tz)/(C−Tz)×100(%), and
(§7) • in the case of Tz<T, the degree was calculated by […].
(§8) From the values thus obtained, ED50 value which is defined as the concentration at which growth of the cancer cell is inhibited by 50% was calculated using the regression function of Excel program.

[2] = system: SK-MEL-2 cell; experiment: Cytotoxicity test (SRB method) for SK-MEL-2 cells; format: cell-based, human; conditions: SK-MEL-2, SRB, 48 hours incubation
From the text: as §1, §2, §3, §4, §5, §6, §7, §8

Compound	ED50(mg/mL) for A549 [1] [mg/mL]	ED50(mg/mL) for SK-MEL-2 [2] [mg/mL]
COc1cc(C2c3cc4c(cc3CC3COC(=O)C32)OCO4)cc(OC)c1OC(C)=O (stereo not drawn) [Compound 1c-3, 4′-demethyl-4′-O-acetyl-1-deoxypodophyllotoxin]	0.003	0.006
CCCCCC/C=C/CCCCCCCCCC(=O)Oc1c(OC)cc(C2c3cc4c(cc3CC3COC(=O)C32)OCO4)cc1OC (stereo not drawn) [Compound 1c-19, 4′-demethyl-4′-O-(trans-11′-octadecenoyl)-1-deoxypodophyllo-toxin]	1.010	0.253
CCCCC/C=C\C/C=C\C/C=C\CCCCC(=O)Oc1c(OC)cc(C2c3cc4c(cc3CC3COC(=O)C32)OCO4)cc1OC (stereo not drawn) [Compound 1c-23, 4′-demethyl-4′-O-(cis-6′,9′,12′-octadecatrienoyl)-1-deoxypodophyllotoxin]	0.085	0.041
CCCCCCCCCC(=O)Oc1c(OC)cc(C2c3cc4c(cc3CC3COC(=O)C32)OCO4)cc1OC (stereo not drawn) [Compound 1c-9, 4′-demethyl-4′-O-decanoyl-1-deoxypodophyllotoxin]	0.027	0.004
COc1cc(C2c3cc4c(cc3CC3COC(=O)C32)OCO4)cc(OC)c1OC(=O)c1ccccc1 (stereo not drawn) [Compound 1c-10, 4′-demethyl-4′-O-benzoyl-1-deoxypodophyllotoxin]	0.095	0.066
CCCC(=O)Oc1c(OC)cc(C2c3cc4c(cc3CC3COC(=O)C32)OCO4)cc1OC (stereo not drawn) [Compound 1c-5, 4′-demethyl-4′-O-butanoyl-1-deoxypodophyllotoxin]	0.005	0.017
COc1cc(C2c3cc4c(cc3CC3COC(=O)C32)OCO4)cc(OC)c1OC(=O)CCCCCCCCCCCCCCC(=O)O (stereo not drawn) [Compound 1c-38, 4′-demethyl-4′-O-(15′-carboxy-pentadecanoyl)-1-deoxypodophyllotoxin]	0.106	0.027
CCCCC/C=C\C/C=C\CCCCCCCC(=O)Oc1c(OC)cc(C2c3cc4c(cc3CC3COC(=O)C32)OCO4)cc1OC (stereo not drawn) [Compound 1c-20, 4′-demethyl-4′-O-(cis-9′,12′-octadecadienoyl)-1-deoxypodophyllo-toxin]	0.090	0.030
CC/C=C\C/C=C\C/C=C\CCCCCCCC(=O)Oc1c(OC)cc(C2c3cc4c(cc3CC3COC(=O)C32)OCO4)cc1OC (stereo not drawn) [Compound 1c-22, 4′-demethyl-4′-O-(cis-9′,12′,15′-octadecatrienoyl)-1-deoxypodophyllotoxin]	0.084	0.048
CCCCCCCC/C=C/CCCCCCCCCC(=O)Oc1c(OC)cc(C2c3cc4c(cc3CC3COC(=O)C32)OCO4)cc1OC (stereo not drawn) [Compound 1c-26, 4′-demethyl-4′-O-(trans-11′-eicosenoyl)-1-deoxypodophyllotoxin]	1.660	1.130
CCCCCCCC/C=C\CCCCCCCCCCCC(=O)Oc1c(OC)cc(C2c3cc4c(cc3CC3COC(=O)C32)OCO4)cc1OC (stereo not drawn) [Compound 1c-30, 4′-demethyl-4′-O-(cis-13′-docosenoyl)-1-deoxypodophyllotoxin]	2.710	0.561
CCCCCCCCCCCCCCCCCCCCCC(=O)Oc1c(OC)cc(C2c3cc4c(cc3CC3COC(=O)C32)OCO4)cc1OC (stereo not drawn) [Compound 1c-29, 4′-demethyl-4′-O-docosanoyl-1-deoxypodophyllotoxin]	>5	>5
CCCCC/C=C/C/C=C/CCCCCCCC(=O)Oc1c(OC)cc(C2c3cc4c(cc3CC3COC(=O)C32)OCO4)cc1OC (stereo not drawn) [Compound 1c-21, 4′-demethyl-4′-O-(trans-9′,12′-octadecadienoyl)-1-deoxypodophyllo-toxin]	0.259	0.110
COc1cc(C2c3cc4c(cc3CC3COC(=O)C32)OCO4)cc(OC)c1OC(=O)/C=C(C)/C=C/C=C(C)/C=C/C1=C(C)CCCC1(C)C (stereo not drawn) [Compound 1c-32, 4′-demethyl-4′-O-retinoyl-1-deoxypodophyllotoxin]	2.130	0.387
COc1cc(C2c3cc4c(cc3CC3COC(=O)C32)OCO4)cc(OC)c1OC(=O)CCCCCCCCCCC(=O)O (stereo not drawn) [Compound 1c-36, 4′-demethyl-4′-O-(11′-carboxy-undecanoyl)-1-deoxypodophyllotoxin]	0.046	0.068
CCCCCCCC/C=C/CCCCCCCC(=O)Oc1c(OC)cc(C2c3cc4c(cc3CC3COC(=O)C32)OCO4)cc1OC (stereo not drawn) [Compound 1c-17, 4′-demethyl-4′-O-(trans-9′-octadecenoyl)-1-deoxypodophyllo-toxin]	0.367	0.550
CCCCCCCCCCCCCCCCCC(=O)Oc1c(OC)cc(C2c3cc4c(cc3CC3COC(=O)C32)OCO4)cc1OC (stereo not drawn) [Compound 1c-15, 4′-demethyl-4′-O-octadecanoyl-1-deoxypodophyllotoxin]	2.670	>5
COc1cc(C2c3cc4c(cc3CC3COC(=O)C32)OCO4)cc(OC)c1OC(=O)CCCCC(=O)O (stereo not drawn) [Compound 1c-33, 4′-demethyl-4′-O-(5′-carboxy-pentanoyl)-1-deoxypodophyllotoxin]	0.258	0.062
CCCCC/C=C\C/C=C\CCCCCCCCCC(=O)Oc1c(OC)cc(C2c3cc4c(cc3CC3COC(=O)C32)OCO4)cc1OC (stereo not drawn) [Compound 1c-27, 4′-demethyl-4′-O-(cis-11′,14′-eicosadienoyl)-1-deoxypodophyllotoxin]	0.870	0.347
CCCCCCC(=O)Oc1c(OC)cc(C2c3cc4c(cc3CC3COC(=O)C32)OCO4)cc1OC (stereo not drawn) [Compound 1c-7, 4′-demethyl-4′-O-heptanoyl-1-deoxypodophyllotoxin]	0.013	0.078
CC/C=C\C/C=C\C/C=C\C/C=C\C/C=C\C/C=C\CCC(=O)Oc1c(OC)cc(C2c3cc4c(cc3CC3COC(=O)C32)OCO4)cc1OC (stereo not drawn) [Compound 1c-31, 4′-demethyl-4′-O-(cis-4′,7′,10′,13′,16′,19′-docohexaenoyl)-1-deoxypodophyllotoxin]	0.119	0.035
COc1cc(C2c3cc4c(cc3CC3COC(=O)C32)OCO4)cc(OC)c1OC(=O)CCCCCCCCC(=O)O (stereo not drawn) [Compound 1c-35, 4′-demethyl-4′-O-(9′-carboxy-nonanoyl)-1-deoxypodophyllotoxin]	0.014	0.015
CCCCCCCC(=O)Oc1c(OC)cc(C2c3cc4c(cc3CC3COC(=O)C32)OCO4)cc1OC (stereo not drawn) [Compound 1c-8, 4′-demethyl-4′-O-octanoyl-1-deoxypodophyllotoxin]	0.009	0.030
CCCCCCCCCCCC(=O)Oc1c(OC)cc(C2c3cc4c(cc3CC3COC(=O)C32)OCO4)cc1OC (stereo not drawn) [Compound 1c-11, 4′-demethyl-4′-O-dodecanoyl-1-deoxypodophyllotoxin]	0.030	0.025
